Experimental data published in patent US20240252496A1, “SELECTIVE HYPOTHALAMUS PERMEABLE HDAC6 INHIBITORS FORTREATMENT OF LEPTIN-RESISTANT OBESITY” (The Children’s Medical Center Corporation, priority 2022, published 2024).

What was measured:
[1] = Brain/plasma ratio, brain and hypothalamus penetrance; format: in vivo; conditions: in words
HDAC6 [2] = target: T1, HDAC6 (Mus musculus (Mouse), UniProt Q9Z2V5); experiment: HDAC6 inhibition in hypothalamus and other brain regions (Ac-tubulin); design: species or system mice; conditions: in vivo
DMH neurons = experiment: ACY775-responsive DMH neurons in TRAP2 DIO mice (c-fos, HDAC6 depletion, caspase3 ablation); format: in vivo
Method: (§1) Following the bilateral injection of AAV-sgHDAC6 into the arcuate nucleus of Agrp-ires-cre::LSL-Cas9-GFP (Agrp-Cre^+/−::Cas9^+/−) or control LSL-Cas9-GFP (Cas9^+/−) mice, immunostaining to detect the expression of mCherry and GFP was performed. AAV-sg-HDAC6 injected Agrp-Cre^+/−::Cas9^+/− (HDAC6^Agrp-Δ) and Cas9^+/− (HDAC6^WT) DIO mice (n=7 for each group) were fasted for 24 hours, and injected with ACY775 (10 mg/kg. i.p). Hourly total dark cycle food intake (g) (n=7 for each group) of these mice after ACY775 injection was measured. Body weight of AAV-sg-HDAC6 injected HDAC6^Agrp-Δ (n=11) and HDAC6^WT (n=6) mice were measured during 3 weeks of ACY775 (10 mg/kg/day, i.p.) treatment. Daily average food intake of HDAC6^Agro-Δ (n=11) and HDAC6^WT (n=6) mice was measured during 3 weeks of ACY775 (10 mg/kg/day, i.p.) treatment. 24-hour food intake average of HDAC Agrp- and HDAC6^WT mice during the 3 weeks of ACY775 treatment was assessed. Serum leptin level (ng/ml) of HDAC6^Agrp-Δ and HDAC6^WT mice after 2 weeks of ACY775 treatment (n=13 for HDAC6^WT and n=18 for HDAC6^Agrp-Δ) was measured. Lean mass (g); fat mass; and fat percentage (%) of HDAC Agrp- and HDAC6^WT DIO mice after 3 weeks of ACY775 treatment was measured by DEXA scan. The HDAC6 inhibitor responsive neurons in the dorsomedial hypothalamus (DMH) were assessed. Immunostaining and quantification of c-Fos expression was performed in the DMH of DIO mice following one-time ACY775 treatment (10 mg/kg, i.p.).
Coordinates used for aav-sg-HDAC6 injection into the DMH of c-Fos-iCreER::LSL-Cas9-GFP (TRAP2-Cas9) mouse, mCherry immunostaining in the aav-sg-HDAC6 injected TRAP2-cas9 obese mice, which were treated three weeks earlier with one dose of ACY775 (10 mg/kg, i.p.) (TRAP2-HDAC6^DMH-Δ) or vehicle (TRAP2-HDAC6^WT), followed by 4-Hydroxytamoxifen (4-OHT) injection, were assessed. TRAP2-HDAC6^WT and TRAP2-HDAC6^DMH-Δ mice were fasted 24-h and treated with ACY775 (10 mg/kg, i.p.). Hourly and total dark cycle food intake (g) (n=4 for each group) was determined for these mice after ACY775 injection. Daily body weight of TRAP2-HDAC6^DMH-Δ (n=10) or TRAP2-HDAC6^WT (n=11) DIO mice was measured during 2 weeks of ACY775 (10 mg/kg/day, i.p) treatment. Daily average food intake of TRAP2-HDAC6^DMH-Δ (n=10) or TRAP2-HDAC6^WT (n=11) DIO mice was measured during 2 weeks of ACY775 treatment.
To investigate whether activity of other neuronal populations are altered after HDAC6 inhibitor treatment, c-fos staining was performed in the whole brain of DIO mice, which were acutely treated with ACY775. […] Some of the DMH neurons express high levels of LepRb and involved in regulation of appetite […]. […]

HDAC6 in AgRP neurons = experiment: DIO mice with HDAC6 deleted in AgRP neurons (HDAC6^Agrp-Δ); format: in vivo
Method: Design, validation, and stereotaxic injection of AAV viral vector carrying the guide RNAs targeting the mouse HDAC6 genomic locus. Three designed sgRNAs were concatenated and constructed into an AAV vector carrying a cre-enabled mCherry fluorescent marker.
as §1

HDAC6 [3] = target: T1, HDAC6; experiment: LepRb acetyl-lysine immunoblotting in HEK293 cells; format: cell-based; conditions: 200 nM, 0.5-3 h
Method: HEK293 cells were transfected with the plasmids and were treated with vehicle or ACY775. Subsequently Flag immunoprecipitation was used to pull down LepRb followed by Ac^Lys or Flag immunoblotting.
To test whether HDAC6 can deacetylate LepRb, HEK293 cells were transfected with plasmids (LepRb-Flag, HA-p300 and HDAC6-myc). LepRb was immunoprecipitated by Flag antibodies, which was followed by acetyl-lysine (Ac^Lys) or immunoblottings.
Next, cells were transfected with plasmids (LepRb-Flag, HA-p300 and HDAC6-myc) and subsequently treated with ACY775 ([…]) for 0.5, 1, 2 and 3 h. […] Next, to investigate whether HDAC6 has any effect on LepRb tyrosine phosphorylation, which is indicative of LepRb activation, HEK 293 cells were transfected with LepRb and HDAC6-Myc plasmids in the indicated order and the cells stimulated with leptin (200 ng/ml) for 10 and 60 minutes. The Flag immunoprecipitates were exposed to phospho-tyrosine (p^Tyr) immunoblotting.

T1 sequence (Q9Z2V5 whole entry): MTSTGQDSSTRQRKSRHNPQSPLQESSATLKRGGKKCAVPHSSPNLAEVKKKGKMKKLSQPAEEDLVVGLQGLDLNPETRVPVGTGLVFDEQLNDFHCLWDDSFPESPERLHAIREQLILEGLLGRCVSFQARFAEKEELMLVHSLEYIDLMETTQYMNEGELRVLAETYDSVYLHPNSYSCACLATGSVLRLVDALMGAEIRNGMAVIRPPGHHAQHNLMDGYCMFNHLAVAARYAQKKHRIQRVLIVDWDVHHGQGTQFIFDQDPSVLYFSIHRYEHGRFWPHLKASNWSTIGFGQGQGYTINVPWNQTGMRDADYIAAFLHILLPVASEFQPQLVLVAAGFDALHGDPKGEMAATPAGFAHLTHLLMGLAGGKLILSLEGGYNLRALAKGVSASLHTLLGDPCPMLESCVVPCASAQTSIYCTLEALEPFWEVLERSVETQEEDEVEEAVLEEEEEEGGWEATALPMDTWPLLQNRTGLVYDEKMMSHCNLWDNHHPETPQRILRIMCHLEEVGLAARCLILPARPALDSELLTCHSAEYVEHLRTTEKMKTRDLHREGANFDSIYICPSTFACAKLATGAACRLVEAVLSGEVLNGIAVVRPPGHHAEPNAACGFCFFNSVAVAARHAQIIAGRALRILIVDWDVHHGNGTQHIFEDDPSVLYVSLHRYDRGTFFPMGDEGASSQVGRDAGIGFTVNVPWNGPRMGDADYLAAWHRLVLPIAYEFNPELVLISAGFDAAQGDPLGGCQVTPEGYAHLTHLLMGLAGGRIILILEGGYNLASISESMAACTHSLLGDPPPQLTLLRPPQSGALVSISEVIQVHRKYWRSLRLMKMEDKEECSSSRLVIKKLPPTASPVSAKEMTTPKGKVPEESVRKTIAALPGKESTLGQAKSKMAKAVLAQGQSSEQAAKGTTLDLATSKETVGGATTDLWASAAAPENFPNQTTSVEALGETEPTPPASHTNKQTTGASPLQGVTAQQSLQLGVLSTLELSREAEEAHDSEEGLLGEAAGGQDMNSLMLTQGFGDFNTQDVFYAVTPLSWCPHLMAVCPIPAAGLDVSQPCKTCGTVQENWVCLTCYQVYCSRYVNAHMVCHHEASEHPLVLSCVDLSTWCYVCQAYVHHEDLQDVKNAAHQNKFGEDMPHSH

SMILES	penetrance into the hypothalamus [1]	HDAC6 inhibition in the hypothalamus (HDAC6 [2])	food intake in fasted caspase3^on-DMH vs caspase3^off-DMH mice (DMH neurons; 10 mg/kg i.p.)	weight and food intake in TRAP2-HDAC6^DMH-Δ and TRAP2-HDAC6^WT mice (DMH neurons; 2 weeks, 10 mg/kg/day i.p.)	c-fos positive cells in DMH (DMH neurons; DIO mice, acute treatment, fasting)	body weight and food consumption in caspase3^on-DMH mice (DMH neurons; chronic, 10 mg/kg/day i.p.)	suppression of food intake after a single dose in HDAC6^Agrp-Δ DIO mice (HDAC6 in AgRP neurons; ACY775 10 mg/kg i.p., fasted)	anti-obesity effects in HDAC6^Agrp-Δ vs HDAC6^WT DIO mice (HDAC6 in AgRP neurons; chronic treatment)	deacetylation of LepRb (HDAC6 [3])
O=C(CCCCCCNC(=O)c1cnc(N(c2ccccc2)c2ccccc2)nc1)NO [Ricolinostat]	neither of which have high penetrance into the hypothalamus	nor show HDAC6 inhibition in the hypothalamus	–	–	–	–	–	–	–
O=C(NO)c1cnc(NC2(c3cccc(F)c3)CCCCC2)nc1 [ACY775, 2-[[1-(3-fluorophenyl)cyclohexyl]amino]-N-hydroxy-5-pyrimidinecarboxamide]	–	–	significantly higher than caspase3^off-DMH mice	lost weight and food intake was reduced equally in both groups	major increase in c-fos positive cell number	neither reduced the body weight nor the food consumption	almost complete resistance to ACY755-induced suppression of food intake	Significantly attenuated effects of ACY775 on all the parameters	completely block deactylation of LepRb
